Data reported in ChEMBL document CHEMBL1132667, “P2-achiral, P'-extended alpha-ketoamide inhibitors of calpain I” (Bioorg Med Chem Lett, 1999).

Each compound was assayed against T1, Calpain-1 catalytic subunit (Homo sapiens, UniProt P07384) (assay: Inhibitory activity against recombinant human Calpain 1).
T1 sequence (P07384 whole entry): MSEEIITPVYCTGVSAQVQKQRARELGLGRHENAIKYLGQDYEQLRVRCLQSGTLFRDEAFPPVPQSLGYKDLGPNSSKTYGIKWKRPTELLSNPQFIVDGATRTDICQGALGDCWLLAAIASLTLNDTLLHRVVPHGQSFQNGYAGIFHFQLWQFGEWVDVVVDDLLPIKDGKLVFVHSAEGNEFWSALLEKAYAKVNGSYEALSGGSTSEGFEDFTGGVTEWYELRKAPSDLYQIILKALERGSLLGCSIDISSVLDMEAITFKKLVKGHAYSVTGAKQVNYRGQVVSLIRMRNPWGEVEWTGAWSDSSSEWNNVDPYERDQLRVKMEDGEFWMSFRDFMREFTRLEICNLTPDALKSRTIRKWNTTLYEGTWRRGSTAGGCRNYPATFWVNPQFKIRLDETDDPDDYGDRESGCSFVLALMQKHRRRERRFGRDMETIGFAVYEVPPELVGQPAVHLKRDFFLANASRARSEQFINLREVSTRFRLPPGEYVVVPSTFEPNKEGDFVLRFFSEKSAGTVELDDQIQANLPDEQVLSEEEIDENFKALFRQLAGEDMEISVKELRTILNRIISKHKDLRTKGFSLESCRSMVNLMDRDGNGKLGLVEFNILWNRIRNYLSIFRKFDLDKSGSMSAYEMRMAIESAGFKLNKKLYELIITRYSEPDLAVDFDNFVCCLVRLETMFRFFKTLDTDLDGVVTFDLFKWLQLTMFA

Compared with O=C(CCCc1ccccc1)N[C@@H](Cc1ccccc1)C(=O)C(=O)NCCNS(=O)(=O)c1ccc(-c2ccccn2)s1, CC(C)CCC(=O)N[C@@H](Cc1ccccc1)C(=O)C(=O)NCCNS(=O)(=O)c1ccc(-c2ccccn2)s1 is 52-fold lower in Ki: 1100 nM for the first, 21 nM for the second.

Compared with CC(C)C(=O)N[C@@H](Cc1ccccc1)C(=O)C(=O)NCCNS(=O)(=O)c1ccc(-c2ccccn2)s1, CC(C)CC(=O)N[C@@H](Cc1ccccc1)C(=O)C(=O)NCCNS(=O)(=O)c1ccc(-c2ccccn2)s1 is 2.6-fold lower in Ki: 1100 nM for the first, 420 nM for the second. The second binds more tightly here.

First: O=C(NCCNS(=O)(=O)c1ccc(-c2cccc(CN3CCOCC3)c2)s1)C(=O)[C@H](Cc1ccccc1)NC(=O)c1c(Cl)cccc1Cl
Second: O=C(Cc1ccc(Cl)nc1Cl)N[C@@H](Cc1ccccc1)C(=O)C(=O)NCCNS(=O)(=O)c1ccc(-c2ccccn2)s1
The Ki of the first is 2.7-fold lower: 21 nM for the first, 57 nM for the second.

Each compound was assayed against T1, Calpain-1 catalytic subunit (assay: Inhibitory activity against recombinant human calpain I).

CC(=O)N1CCN(Cc2ccc(S(=O)(=O)NCCNC(=O)C(=O)[C@H](Cc3ccccc3)NC(=O)c3c(Cl)cccc3Cl)cc2)CC1 and O=C(NCCNS(=O)(=O)c1ccc(CN2CCN(c3ccccn3)CC2)cc1)C(=O)[C@H](Cc1ccccc1)NC(=O)c1c(Cl)cccc1Cl are within 1.5-fold of each other in Ki: 71 nM for the first, 59 nM for the second.

Going from O=C(NCCNS(=O)(=O)c1ccc(-c2ccccn2)s1)C(=O)[C@H](Cc1ccccc1)NC(=O)c1cc(C(F)(F)F)cc(C(F)(F)F)c1 to O=C(NCCNS(=O)(=O)c1ccc(-c2ccccn2)s1)C(=O)[C@H](Cc1ccccc1)NC(=O)c1c(F)cccc1F, the Ki falls from 430 nM to 14 nM (31-fold).

CC(=O)NCc1cccc(-c2ccc(S(=O)(=O)NCCNC(=O)C(=O)[C@H](Cc3ccccc3)NC(=O)c3c(Cl)cccc3Cl)s2)c1 and O=Cc1cccc(-c2ccc(S(=O)(=O)NCCNC(=O)C(=O)[C@H](Cc3ccccc3)NC(=O)c3c(Cl)cccc3Cl)s2)c1 are within 1.5-fold of each other in Ki: 14 nM for the first, 15 nM for the second.

O=C(NCCNS(=O)(=O)c1ccc(-c2ccccn2)s1)C(=O)[C@H](Cc1ccccc1)NC(=O)c1cc(Cl)ccc1Cl and COc1ccc(Cl)c(C(=O)N[C@@H](Cc2ccccc2)C(=O)C(=O)NCCNS(=O)(=O)c2ccc(-c3ccccn3)s2)c1 are within 1.5-fold of each other in Ki: 49 nM for the first, 46 nM for the second.

Compared with O=C(NCCNS(=O)(=O)c1ccc(-c2ccccn2)s1)C(=O)[C@H](Cc1ccccc1)NC(=O)c1c(Cl)cccc1Cl, Cc1cccc(C)c1C(=O)N[C@@H](Cc1ccccc1)C(=O)C(=O)NCCNS(=O)(=O)c1ccc(-c2ccccn2)s1 is 5-fold higher in Ki: 26 nM for the first, 130 nM for the second.

First: CC(CCC(=O)N[C@@H](Cc1ccccc1)C(=O)C(=O)NCCNS(=O)(=O)c1ccc(-c2ccccn2)s1)c1ccccc1 (some centres not stated)
Second: O=C(NCCNS(=O)(=O)c1ccc(-c2ccccn2)s1)C(=O)[C@H](Cc1ccccc1)NC(=O)c1ccccc1
The Ki of the first is 9.2-fold lower: 62 nM for the first, 570 nM for the second. The first binds more tightly here.

First: O=C(NCCNS(=O)(=O)c1ccc(-c2ccccn2)s1)C(=O)[C@H](Cc1ccccc1)NC(=O)c1ccc2c(c1)OCO2
Second: CS(=O)(=O)N[C@H](COCc1ccccc1)C(=O)N[C@@H](Cc1ccccc1)C(=O)C(=O)NCCNS(=O)(=O)c1ccc(-c2ccccn2)s1
The Ki of the first is higher: over 1000 nM for the first, 10 nM for the second.

Compared with N#Cc1cccc(-c2ccc(S(=O)(=O)NCCNC(=O)C(=O)[C@H](Cc3ccccc3)NC(=O)c3c(Cl)cccc3Cl)s2)c1, O=C(N[C@@H](Cc1ccccc1)C(=O)O)c1c(Cl)cccc1Cl is 45-fold higher in Ki: 8 nM for the first, about 360 nM for the second. The first binds more tightly here.
